Assay results as given in patent US20140243403A1, “TREATING COLORECTAL, PANCREATIC, AND LUNG CANCER” (The General Hospital Corporation, priority 2011, published 2014).
pIC50: −log10 of the molar value.

What was measured:
[1] = system: HT29 cells expressing mutant KRAS (G12V) 4A or 4B; assay: Sensitivity of HT29 cells expressing mutant KRAS (G12V); type: cell-based, human; conditions: HT29 cells expressing 4A or 4B splice isoform of mutant KRAS (G12V)
Text: (§1) (D) Forced overexpression of epitope-tagged oncogenic G12V mutated RAS protein isoforms in HT29 cells and sensitivity to TAK1 pharmacological inhibition with 5Z-7-oxozeaenol. Expression levels of exogenous and endogenous Ras proteins are shown by immunoblotting with a pan-ras monoclonal antibody. NRAS/KRAS4B are HA-tagged and KRAS4A is V5-tagged.
(§2) These cell lines are insensitive to 5Z-7-oxozeaenol.

[2] = system: HT29 cells expressing mutant NRAS; assay: Sensitivity of HT29 cells expressing mutant NRAS; type: cell-based, human; conditions: HT29 cells with ectopic mutant NRAS
Text: as §1, §2

SW620 cells = assay: Cellular proliferation and viability, CRC cell line panel; type: cell-based, human; conditions: KRAS G12V (KRAS-dependent), BRAF WT, APC del, CTNNB1 WT, 3 days post-treatment
Description: (§3) (A) IC50 values (μM) for effects on cellular proliferation and viability with the TAK1 kinase inhibitor 5z-7-oxozeaenol in a panel of colon cancer cell lines that have been genotyped as KRAS mutant (KRAS-independent—circles or KRAS-dependent—squares), BRAF mutant (triangles) or wild-type for both KRAS and BRAF (OTHER—diamonds). Effects on growth were measured 3 days post-treatment. Data are represented as the mean of 3 independent experiments and error bars indicate the median±interquartile range. *denotes p<0.00001; n.s.—not significant.
(§4) To further validate TAK1 as a candidate therapeutic target in this context, a potent and selective TAK1 kinase inhibitor, 5Z-7-oxozeaenol (Rawlins et al., 1999), was used. Sensitivity to 5Z-7-oxozeaenol was tested in a panel of 47 colon cancer cell lines with various genotypes (FIGS. 3A and 9A). KRAS and BRAF genotypes were either procured from the Sanger Institute's Catalog of Somatic Mutations (COSMIC) or determined by targeted resequencing (Table 2). KRAS mutation status was determined as described above; the same methods were used to determine the mutation states of BRAF. BRAF exon15 was sequenced with TCATAATGCTTGCTCTGATAGGA (forward; SEQ ID NO:3) and GGCCAAAAATTTAATCAGTGG (reverse; SEQ ID NO:4).

COLO-741 cells = assay: as above; type: cell-based, human; conditions: KRAS WT, BRAF V600E, 3 days post-treatment
Description: as §3, §4

CaR-1 cells = assay: as above; type: cell-based, human; conditions: KRAS WT, BRAF WT, 3 days post-treatment
Description: as §3, §4

HRT-18 cells = assay: as above; type: cell-based, human; conditions: KRAS G13D, BRAF WT, APC del, CTNNB1 WT, 3 days post-treatment
Description: as §3, §4

RCM-1 cells = assay: as above; type: cell-based, human; conditions: KRAS G12V (KRAS-dependent), BRAF WT, APC del, CTNNB1 WT, 3 days post-treatment
Description: as §3, §4

DLD-1 cells = assay: as above; type: cell-based, human; conditions: KRAS G13D, BRAF WT, APC del, CTNNB1 WT, 3 days post-treatment
Description: as §3, §4

[3] = system: SK-CO-1 and SW620 (KRAS-dependent) xenografted tumors; assay: Subcutaneous xenografted tumors, KRAS-dependent; type: in vivo, NOD/SCID mice; conditions: 15 mg/kg daily intraperitoneal, 6 days of treatment
Description: (C) TAK1 inhibition in mice with xenografted human tumors derived from the HCT8/SW837 (KRAS-independent) and SK-CO-1/SW620 (KRAS-dependent) cell lines. Cells expressing firefly luciferase were injected subcutaneously into the flanks of […]. Tumors are shown as imaged by IVIS detection of luminescence counts (in photons/sec) following 14 days of tumor growth followed by 6 days of treatment with either 15 mg/kg 5z-7-oxozeaenol or vehicle ([…] in arachis oil), IP delivery q.d. Quantitation of tumor volume (mm^3) is plotted on the right. Tumor volume data are represented as the mean of 4 tumors in 2 mice for each group+/−SEM.
To validate the efficacy of 5Z-7-oxozeaenol in vivo, subcutaneous xenografted tumors were generated in NOD/SCID mice using four representative KRAS mutant cell lines: HCT8 and SW837 (KRAS-independent), and SK-CO-1 and SW620 (KRAS-dependent). Human colorectal cancer tumor cells were trypsinized and resuspended as single cell suspensions at 3×10^7 cells per ml in PBS. 100 μL (3×10^6 cells total) of this suspension were injected into opposite left and right flanks of NOD/SCID mice. All mice were housed in a pathogen-free environment. Tumor size was monitored daily and once tumor volume had reached approximately 200 mm^3, treatment with 5Z-7-oxozeaenol was initiated (7 to 14 days post-implantation). Mice were injected daily with 15 mg/kg 5Z-7-oxozeaenol. […]

Wnt target gene Axin 2 = assay: Axin 2 protein expression, western blot; type: cell-based, human
Description: (C) Protein expression levels of the Wnt target gene Axin 2 following treatment of cells with the indicated concentrations. GAPDH serves as a loading control.
In contrast, KRAS depletion had no effect in one KRAS-independent line (SW1463) and increased TOP-FLASH activity in another (LS174T). […] To define the effect of TAK1 signaling on a physiological Wnt target gene, protein expression levels of the endogenous Axin 2 gene (Lustig et al., 2002) were measured following treatment with 5Z-7-oxozeaenol. […] Thus, both KRAS and TAK1 suppression selectively suppress β-catenin-mediated transcription and Wnt target gene expression in KRAS-dependent cells.
The following antibodies were used for western blotting in the above examples: KRAS OP-24, Pan-Ras OP-40 (Calbiochem); PARP (BD Pharmigen, 4C10-5); BMP-7 (Abcam); phospho-ERK, Axin2, phospho Smad1 and total Smad1/5/8, phospho- and total AMPK, phospho- and total AKT, cleaved Caspase-3 (Cell Signaling); GAPDH (Chemicon); E-Cadherin, beta-catenin (BD Pharmigen) Syk, TAK1, total ERK1 (Santa Cruz). For secreted BMP-7 levels, 1×10^6 HT29 cells stably expressing ER-KRAS(12V) were plated in 10 cm dishes. 24 h post-plating, 10 ml serum-free DME/F12 medium (Gibco) was added. Conditioned media was collected 24 h post-induction of ER-KRAS(12V) with 4-HT and concentrated to […], using AMICON® Ultra-4 Centrifugal Filter Units with 3 kDa membranes. […]

COc1cc(O)c2c(c1)/C=C/C[C@H](O)[C@H](O)C(=O)/C=C\C[C@H](C)OC2=O [5Z-7-oxozeaenol]
reduction in the IC50 for 5Z-7-oxozeaenol [1]: 3 fold | change in sensitivity to 5Z-7-oxozeaenol [2]: slightly increased resistance | pIC50 (SW620 cells): 7.03 | pIC50 (COLO-741 cells): 5.74 | pIC50 (CaR-1 cells): 5.22 | pIC50 (HRT-18 cells): 4.22 | pIC50 (RCM-1 cells): 6.56 | pIC50 (DLD-1 cells): 5.08 | tumor response (imaging, tumor volume) [3]: remarkable regression | Axin 2 expression (Wnt target gene Axin 2; KRAS-dependent cells): dose-dependent reduction | Axin 2 expression, dose-dependent reduction (Wnt target gene Axin 2; KRAS-independent cells): not
